US6476037B1, “L-arginine and phosphodiesterase (PDE) inhibitor synergism” (The Regents of the University of California, priority 2000, dated 2002)
Like-named read-outs stand apart in the source and are kept apart here.

Tests used:
[1] = system: Systemic and Coronary Vasculature of the Pig; experiment: Hemodynamic effects in chronically instrumented, anesthetized swine; type: in vivo
Protocol: Chronically instrumented female swine (70 kg, n=10) (ascending aortic and left anterior descending (LAD) coronary artery transit time flow probes, carotid and internal jugular pressures) were administered five doses of 1-arginine in five-minute intervals. After a period of recovery, four doses of nitroglycerin (1, 2, 3, 4 μg/kg/min) were infused. Sildenafil (100 mg IV) was administered and the 1-arginine and nitroglycerin administrations repeated.
After approval by the Institutional Animal Care and Use Committee, 70 kg female domestic swine (70.5±2.6 kg) were sedated with ketamine (25 mg/kg IM). Mask induction with isoflurane was followed by intubation with an endotracheal tube (6.0 ID 45 cm long). An angiocathether (20 gauge) was placed in an ear vein for IV fluid administration. Prophylactic antibiotics (cefazolin 1 gram IV prior to incision followed by cephalexin 500 mg PO BID) were given. The animal was ventilated with 100% oxygen and isoflurane to maintain anesthesia. A left thoracotomy (T4-5) was performed under sterile conditions. Transonics® (Ithaca, N.Y.) transit time flow probes were placed on the ascending aorta (model 28A) and the proximal left anterior descending coronary artery (3 mm, model 3S). The flow probe cables were tunneled to the animal's back. The thoracotomy was closed and air evacuated with a chest tube. The animals were given ketorolac (30 mg IV) followed by buprenorphine (0.3 to 0.6 mg IM Q8 hours for 5 days) for postoperative pain. The animals were allowed to recover for a minimum of two days before experimentation.
Previously instrumented swine were sedated with ketamine (25 mg/kg IM) and mask-induced with isoflurane. An angiocatheter (20 gauge) was placed in an ear vein for IV fluid administration. Animals were intubated (6.0 ID 45 cm long tube) and ventilated with 100% oxygen and isoflurane. Prophylactic antibiotics were given (cefazolin 1 gm IV). The animal's neck was then opened using sterile technique. Angiocatheters (16 gauge) were placed in the left and right internal jugular veins for central venous pressure monitoring and for drug and fluid infusions. An angiocatheter (20 gauge) was placed in the common carotid artery for blood sampling and pressure measurement. Arterial and central venous pressures were measured with disposable pressure transducers (Abbott Critical Care Systems Transpac® IV, North Chicago, Ill.) and the Transonics® Transit Time Flow meter (Model 206 with (-R) pRessure Option, Ithaca, N.Y.). ECG was monitored (Electronics for Medicine Monitor Model OM). The neck was closed. A supra-pubic bladder catheter was placed using sterile technique for urinary drainage. Data was recorded at 100 Hz using WinDaq data acquisition software (Transonics Systems, Ithaca, N.Y.). The pressure transducers were calibrated using a mercury manometer. Flow probes were calibrated prior to use.
Fentanyl (2 mg), diazepam (20 mg), and pancuronium (10 mg) were administered as a bolus. Isoflurane was simultaneously discontinued.

[2] = L-arginine pharmacokinetic parameters from preliminary clinical and animal data; type: in vivo
Protocol: Computer simulation of the predicted L-arginine levels from the high dose (1 mcg/kg/min) yield levels of 420 mmol/L. (T1/2=10 minutes, Volume distribution=0.36 L/kg: obtained from our preliminary clinical and animal data). Computer simulations of the low dose (0.5 mcg/kg/min) yield levels of 260 mmol/L. These doses are in the range to improve endothelial function and prevent vasospasm but will not cause significant vasodilation.

[3] = cited from earlier work
[4] = Serum L-arginine and L-citrulline concentrations after IV L-arginine boluses; type: in vivo, swine
Protocol: 2. L-Arginine Administration: A bolus dose of 1-arginine (60 cc of 10% 1-arginine (6 grams)) was administered intravenously. Five minutes later a blood sample was taken. The dose was then repeated. This procedure was repeated a total of five times (total of 300 cc of 10% 1-arginine (30 grams) administered). Thirty minutes were allowed to elapse and then a final blood sample collected.
Blood samples were collected in serum separator tubes and immediately placed on ice. Tubes were centrifuged for 20 minutes and the serum removed and stored in cryovials at −80° C. L-arginine and 1-citrulline levels were quantified by the Protein Structure Lab at the University of California, Davis (Davis, Calif.) with an ion-exchange chromatographer (Beckman 6300 aminoacid analyzer, Fullerton, Calif.). Serum osmolality was measured using an osmometer (Advanced Instruments, Needleham Heights, Mass.) by the Veternary Medical Teaching Hospital Diagnostic Laboratories (Davis, Calif.).

[5] = L-arginine levels after oral or intravenous L-arginine supplementation; type: in vivo; conditions: preliminary trial, bolus 30 grams over 15 minutes; from 81±8
Protocol: With respect to the coronary disease applications, we note that L-arginine levels without supplementation are about 116±14 mmol/L and oral administration elevates the levels to about 224±26 mmol/L with improvement in vasomotor function. […] Intravenous infusions (10 mg/kg/min) raised L-arginine levels from about 102±5 to about 8172±122 mmol/L and caused vasodilation. In our preliminary trial a bolus of L-arginine (30 grams over 15 minutes) elevated levels (81±8 to 6900±600 μmol). In preferred embodiments, there were two fundamentally different ranges of L-Arginine levels achieved. Levels that were 1.5 to 2 times baseline and levels that were 50 to 100 times baseline.

[6] = l-arginine alone, five 6 gram IV boluses at 5 min intervals, mean±SE
[7] = first administration of sildenafil, 100 mg IV bolus, mean±SE
[8] = first dose of sildenafil, 100 mg IV bolus

Cl.N=C(N)NCCC[C@H](N)C(=O)O [L-Arginine, 1-arginine hydrochloride]
CO, Max Effect [1, 6]: 8.9 ± 0.5 L/min | CVP, Max Effect [1, 6]: 12.0 ± 1.0 mmHg | CVR, Max Effect [1, 6]: 89.1 ± 4.7 dynes*sec*cm^−5*10^3 | HR, Max Effect [1, 6]: 106.5 ± 6.7 beats/min | MAP, Max Effect [1, 6]: 107.4 ± 6.4 mmHg | SVR, Max Effect [1, 6]: 825.0 ± 39.3 dynes*sec*cm^−5 | LAD Flow, Max Effect ([1]; l-arginine alone, five 6 gram IV boluses at 5 min intervals, mean±SE, hydrochloride): 66.7 ± 6.6 mL/min | LAD Flow, Max Effect ([1]; l-arginine alone, five 6 gram IV boluses at 5 min intervals, mean±SE, listed as L-arginine, hydrochloride): 66.7 ± 6.6 mL/min | change in coronary blood flow relative to the change expected for a similar change in osmolality ([1]; l-arginine fifth dose compared with mannitol): 2.6 times | T1/2 [2]: 10 min | Volume distribution [2]: 0.36 L/kg | L-arginine levels ([3]; intravenous infusions 10 mg/kg/min, from about 102±5): about 8172±122 mmol/L | L-arginine levels ([3]; oral administration, without supplementation about 116±14): about 224±26 mmol/L | Serum [L-Arginine] ([4]; 5 min after Dose #1 (6 grams IV), no sildenafil): 1987.0 ± 116.8 µM | Serum [L-Arginine] ([4]; 5 min after Dose #2 (6 grams IV each), no sildenafil): 3139.2 ± 129.6 µM | Serum [L-Arginine] ([4]; 5 min after Dose #3 (6 grams IV each), no sildenafil): 4143.3 ± 205.4 µM | Serum [L-Arginine] ([4]; 5 min after Dose #4 (6 grams IV each), no sildenafil): 5232.7 ± 364.6 µM | Serum [L-Arginine] ([4]; 5 min after Dose #5 (total 30 grams IV), no sildenafil): 5922.1 ± 307.4 µM | Serum [L-Citrulline] ([4]; 5 min after L-arginine Dose #1 (6 grams IV), no sildenafil): 54.7 ± 5.2 µM | Serum [L-Citrulline] ([4]; 5 min after L-arginine Dose #2, no sildenafil): 53.2 ± 4.2 µM | Serum [L-Citrulline] ([4]; 5 min after L-arginine Dose #3, no sildenafil): 54.9 ± 4.4 µM | Serum [L-Citrulline] ([4]; 5 min after L-arginine Dose #4, no sildenafil, hydrochloride): 61.5 ± 6.7 µM | Serum [L-Citrulline] ([4]; 5 min after L-arginine Dose #4, no sildenafil, listed as 1-arginine, hydrochloride): 61.5 ± 6.7 µM | Serum [L-Citrulline] ([4]; 5 min after L-arginine Dose #5, no sildenafil): 60.2 ± 5.9 µM | Serum [L-Citrulline] ([4]; 30 min Post last L-arginine dose, no sildenafil): 60.5 ± 7.1 µM | Serum [L-Arginine] ([4]; 30 min Post last dose, no sildenafil): 2592.7 ± 268.9 µM | L-arginine levels [5]: 6900 ± 600 µmol

O=[N+]([O-])OCC(CO[N+](=O)[O-])O[N+](=O)[O-] [Nitroglycerin, nitroglycerin]
CO, Max Effect ([1]; in vivo, iv): 9.1 ± 0.7 L/min | CVP, Max Effect ([1]; in vivo, iv): 9.9 ± 1.0 mmHg | CVR, Max Effect ([1]; in vivo, iv): 98.9 ± 9.8 dynes*sec*cm^−5*10^3 | HR, Max Effect ([1]; in vivo, iv): 128.3 ± 9.0 beats/min | LAD Flow, Max Effect ([1]; in vivo, iv): 65.4 ± 6.7 mL/min | MAP, Max Effect ([1]; in vivo, iv): 103.9 ± 6.6 mmHg | SVR, Max Effect ([1]; in vivo, iv): 882.8 ± 98.6 dynes*sec*cm^−5

CCCc1nn(C)c2c(=O)[nH]c(-c3cc(S(=O)(=O)N4CCN(C)CC4)ccc3OCC)nc12 [sildenafil]
LAD flow, peak [1, 7]: 87.6 ± 7.3 mL/min | Mean arterial pressure, min. [1, 7]: 78.7±7.0 mmHg | cardiac output, peak [1, 7]: 10.5 ± 0.8 L/min | central venous pressure, min. [1, 7]: 9.1±1.1 mmHg | coronary vascular resistance, min. [1, 7]: 54.7±5.3 dynes*sec*cm^−5*10^3 | heart rate, peak [1, 7]: 165.0±8.9 beats/min | systemic vascular resistance, min. [1, 7]: 612.2±61.1 dynes*sec*cm^−5 | duration of effects on MAP, CVP, CVR, and SVR [1, 8]: persisted through the fifteen-minute observation period | duration of increase in cardiac output (disappeared after) [1, 8]: three | duration of increase in heart rate [1, 8]: about five | increase in cardiac output [1, 8]: 1.2 L/min | effect of sildenafil on the l-arginine-induced change in LAD flow ([1]; sildenafil 100 mg IV before l-arginine boluses, P<0.05): potentiated the effects of 1-arginine on LAD flow | time of peak hemodynamic effect following injection ([1]; sildenafil i.v. bolus): approximately two
